Laboratory results taken from ChEMBL document CHEMBL3085743, “6-(1-Benzyl-1H-pyrrol-2-yl)-2,4-dioxo-5-hexenoic acids as dual inhibitors of recombinant HIV-1 integrase and ribonuclease H, synthesized by a parallel synthesis approach” (J Med Chem, 2013).

What was measured:
[1] = target: Human immunodeficiency virus type 1 integrase (Human immunodeficiency virus 1, UniProt Q7ZJM1)
Description: Inhibition of strand transfer activity of recombinant HIV1 integrase using 5'-end-labeled 21-mer double-stranded DNA as substrate after 60 mins by electrochemiluminescent plate-based assay

[2] = target: Human immunodeficiency virus type 1 reverse transcriptase (Human immunodeficiency virus 1, UniProt Q72547)
Description: Inhibition of RNase H activity of recombinant HIV1 reverse transcriptase using poly(dC)-[3H]poly(rG) as substrate

Sequence of Human immunodeficiency virus type 1 integrase (Q7ZJM1 whole entry): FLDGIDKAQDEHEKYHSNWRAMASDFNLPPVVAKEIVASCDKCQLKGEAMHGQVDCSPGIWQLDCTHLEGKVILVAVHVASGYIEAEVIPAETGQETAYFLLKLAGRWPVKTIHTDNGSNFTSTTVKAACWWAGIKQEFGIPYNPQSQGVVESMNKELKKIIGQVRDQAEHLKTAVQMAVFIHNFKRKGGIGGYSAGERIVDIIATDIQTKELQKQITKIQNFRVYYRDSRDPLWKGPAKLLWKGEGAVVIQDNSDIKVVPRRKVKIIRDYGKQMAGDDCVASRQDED

Row | SMILES | IC50 [1] [µM] | IC50 [2] [µM]
1 | O=C(/C=C/c1cccn1Cc1ccc(Cl)cc1)CC(=O)C(=O)O | 4.1 | 5
2 | CCOC(=O)C(=O)CC(=O)/C=C/c1cccn1Cc1ccc(C)cc1 | – | 7.3
3 | CCOC(=O)C(=O)CC(=O)/C=C/c1cccn1Cc1ccc(F)cc1F | 1 | 19
4 | O=C(/C=C/c1cccn1Cc1cc(F)cc(F)c1)CC(=O)C(=O)O | 1.2 | 14
5 | O=C(/C=C/c1cccn1Cc1ccc(Cl)cc1Cl)CC(=O)C(=O)O | 4.9 | 7
6 | O=C(/C=C/c1cccn1Cc1c(Cl)cccc1Cl)CC(=O)C(=O)O | 0.17 | 28
7 | O=C(/C=C/c1cccn1Cc1cc(Cl)cc(Cl)c1)CC(=O)C(=O)O | 0.97 | 30
8 | O=C(/C=C/c1cccn1Cc1cccc(Cl)c1)CC(=O)C(=O)O | 0.31 | 9
9 | N#Cc1ccccc1Cn1cccc1/C=C/C(=O)CC(=O)C(=O)O | 6 | 6
10 | N#Cc1cccc(Cn2cccc2/C=C/C(=O)CC(=O)C(=O)O)c1 | 0.75 | 5
11 | N#Cc1ccc(Cn2cccc2/C=C/C(=O)CC(=O)C(=O)O)cc1 | 1.7 | 6
12 | COc1ccccc1Cn1cccc1/C=C/C(=O)CC(=O)C(=O)O | 0.53 | 16
13 | CCOc1ccccc1Cn1cccc1/C=C/C(=O)CC(=O)C(=O)O | 0.31 | 64
14 | Cc1cc(C)cc(Cn2cccc2/C=C/C(=O)CC(=O)C(=O)O)c1 | 1.6 | 16
15 | O=C(/C=C/c1cccn1Cc1cccc(F)c1F)CC(=O)C(=O)O | 0.059 | 6
16 | O=C(/C=C/c1cccn1Cc1ccc(F)cc1F)CC(=O)C(=O)O | 0.042 | 10
17 | O=C(/C=C/c1cccn1Cc1cc(F)ccc1F)CC(=O)C(=O)O | 0.052 | 5
18 | O=C(/C=C/c1cccn1Cc1c(F)cccc1F)CC(=O)C(=O)O | 0.15 | 50
19 | O=C(/C=C/c1cccn1Cc1ccc(F)c(F)c1)CC(=O)C(=O)O | 1.6 | 86
20 | CCOC(=O)C(=O)CC(=O)/C=C/c1cccn1Cc1cc(F)ccc1F | 0.45 | 9
21 | CCOC(=O)C(=O)CC(=O)/C=C/c1cccn1Cc1c(F)cccc1F | 4 | 19
22 | CCOC(=O)C(=O)CC(=O)/C=C/c1cccn1Cc1cc(F)cc(F)c1 | 0.49 | 5
23 | CCOC(=O)C(=O)CC(=O)/C=C/c1cccn1Cc1ccc(Cl)cc1Cl | > 111 | 9
24 | CCOC(=O)C(=O)CC(=O)/C=C/c1cccn1Cc1c(Cl)cccc1Cl | 1.7 | 22

Row | SMILES | IC50 [1] [µM] | IC50 [2] [µM]
25 | CCOC(=O)C(=O)CC(=O)/C=C/c1cccn1Cc1cc(Cl)cc(Cl)c1 | 8 | –
26 | Cc1ccccc1Cn1cccc1/C=C/C(=O)CC(=O)C(=O)O | 0.17 | 26
27 | Cc1cccc(Cn2cccc2/C=C/C(=O)CC(=O)C(=O)O)c1 | 1.3 | 4.6
28 | O=C(/C=C/c1cccn1Cc1ccccc1F)CC(=O)C(=O)O | 0.98 | 6.4
29 | O=C(/C=C/c1cccn1Cc1cccc(F)c1)CC(=O)C(=O)O | 0.92 | 14
30 | CCOC(=O)C(=O)CC(=O)/C=C/c1cccn1Cc1ccccc1F | 1 | 6.3
31 | CCOC(=O)C(=O)CC(=O)/C=C/c1cccn1Cc1cccc(F)c1 | 11 | 9
32 | CCOC(=O)C(=O)CC(=O)/C=C/c1cccn1Cc1cccc(Cl)c1 | 6 | 19
33 | CCOC(=O)C(=O)CC(=O)/C=C/c1cccn1Cc1ccccc1C#N | 9 | 32
34 | CCOC(=O)C(=O)CC(=O)/C=C/c1cccn1Cc1cccc(C#N)c1 | 13 | 5
35 | CCOC(=O)C(=O)CC(=O)/C=C/c1cccn1Cc1ccc(C#N)cc1 | > 111 | 8
36 | CCOC(=O)C(=O)CC(=O)/C=C/c1cccn1Cc1ccccc1OC | 23 | > 100
37 | CCOC(=O)C(=O)CC(=O)/C=C/c1cccn1Cc1ccccc1OCC | 12 | > 100
38 | CCOC(=O)C(=O)CC(=O)/C=C/c1cccn1Cc1cc(C)cc(C)c1 | 19 | 6
39 | CCOC(=O)C(=O)CC(=O)/C=C/c1cccn1Cc1cccc(F)c1F | 0.53 | 8
40 | CCOC(=O)C(=O)CC(=O)/C=C/c1cccn1Cc1ccccc1C | 32 | 3
41 | CCOC(=O)C(=O)CC(=O)/C=C/c1cccn1Cc1cccc(C)c1 | 8 | 9.6
42 | CCOC(=O)C(=O)CC(=O)/C=C/c1cccn1Cc1ccc(Cl)cc1 | – | 8
43 | COc1ccc(Cn2cccc2/C=C/C(=O)CC(=O)C(=O)O)cc1 | – | 3
44 | O=C(/C=C/c1cccn1Cc1ccc(F)cc1)CC(=O)C(=O)O | 0.026 | 2.5
45 | O=C(/C=C/c1cccn1Cc1ccccc1)CC(=O)C(=O)O | – | 15
46 | Cc1ccc(Cn2cccc2/C=C/C(=O)CC(=O)C(=O)O)cc1 | – | 17
47 | CCOC(=O)C(=O)CC(=O)/C=C/c1cccn1Cc1ccc(OC)cc1 | – | 6.7
